Reference: patent US7727980B2, “Tricyclic androgen receptor modulator compounds and methods” (priority 2001, dated 2010)
Read-outs that look alike come from different tables or passages of the source.

What was measured:
[1] = molecular target: T1, human AR (Homo sapiens, UniProt P10275); test: AR whole cell competitive binding assay (3H-DHT), transfected COS-1 cells; design: expressed in transfected cells; transient transfection with pRShAR
T1 sequence (P10275 1-920): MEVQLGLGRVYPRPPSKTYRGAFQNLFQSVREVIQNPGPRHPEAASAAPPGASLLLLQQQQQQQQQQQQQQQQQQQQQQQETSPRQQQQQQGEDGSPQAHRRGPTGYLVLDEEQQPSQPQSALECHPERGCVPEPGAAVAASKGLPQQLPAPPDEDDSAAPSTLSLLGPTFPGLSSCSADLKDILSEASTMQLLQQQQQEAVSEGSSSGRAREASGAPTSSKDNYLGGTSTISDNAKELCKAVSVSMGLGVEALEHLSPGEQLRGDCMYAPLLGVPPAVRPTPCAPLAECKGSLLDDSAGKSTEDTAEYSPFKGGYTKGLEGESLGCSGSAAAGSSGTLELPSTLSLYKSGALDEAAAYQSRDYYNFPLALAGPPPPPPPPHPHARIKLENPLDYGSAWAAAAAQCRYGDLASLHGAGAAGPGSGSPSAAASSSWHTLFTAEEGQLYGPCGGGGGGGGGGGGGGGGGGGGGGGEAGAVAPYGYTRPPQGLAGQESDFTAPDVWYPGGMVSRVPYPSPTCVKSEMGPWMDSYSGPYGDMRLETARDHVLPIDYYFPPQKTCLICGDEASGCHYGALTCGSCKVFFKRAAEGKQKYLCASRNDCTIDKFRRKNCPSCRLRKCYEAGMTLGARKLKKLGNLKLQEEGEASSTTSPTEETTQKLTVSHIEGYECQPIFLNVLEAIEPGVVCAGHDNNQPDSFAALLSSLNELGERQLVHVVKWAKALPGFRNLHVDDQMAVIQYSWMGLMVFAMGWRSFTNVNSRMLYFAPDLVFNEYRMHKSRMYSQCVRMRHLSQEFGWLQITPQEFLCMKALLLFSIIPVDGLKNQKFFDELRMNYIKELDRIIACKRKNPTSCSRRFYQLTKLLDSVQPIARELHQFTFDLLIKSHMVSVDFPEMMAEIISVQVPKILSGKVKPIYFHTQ
Experimental: AR Binding: For the whole cell binding assay, COS-1 cells in 96-well microtiter plates containing DMEM-10% FBS were transfected as described above with the following plasmid DNA: pRShAR (2 ng/well), pRS-β-Gal (50 ng/well) and pGEM (48 ng/well). Six hours after transfection, media was removed, the cells were washed with PBS and fresh media was added. The next day, the media was changed to DMEM-serum free to remove any endogenous ligand that might be complexed with the receptor in the cells.
Three replicates were used for each sample. […] The remaining media was removed, the cells were washed three times with PBS to remove unbound ligand and cells were lysed with a Triton X-100-based buffer.
For the saturation analyses, the difference between the total binding and the nonspecific binding, normalized by the β-Gal rate, was defined as specific binding. […] The Ki values were determined by application of the Cheng-Prusoff equation to the IC50 values, where: […]
After correcting for non-specific binding, IC50 values were determined. […] The IC50 value was determined graphically from a log-logit plot of the data. The Ki values were determined by application of the Cheng-Prusoff equation to the IC50 values, the labeled ligand concentration and the Kd of the labeled ligand.

[2] = molecular target: T1, human AR; test: Co-transfection assay, AR agonist activity, CV-1 cells; assay type: cell-based; design: expressed in transfected cells; host or cells: CV-1 cells (African green monkey kidney fibroblasts), transient transfection with pRShAR; conditions: for AR Agonist CV-1 Cells Efficacy (%): percent maximal response relative to reference agonist DHT
Text: (§1) The co-transfection assay provides a method for identifying functional agonists and partial agonists which mimic, or antagonists which inhibit, the effect of native hormones and quantifying their activity for responsive IR proteins. In this regard, the co-transfection assay mimics an in vivo system in the laboratory. Importantly, activity in the co-transfection assay correlates very well with known in vivo activity, such that the co-transfection assay functions as a qualitative and quantitative predictor of a tested compounds in vivo pharmacology. See, e.g., T. Berger et al. 41 J. Steroid Biochem. Molec.
(§2) In the co-transfection assay, a cloned cDNA for an IR (e.g., human PR, AR or GR) under the control of a constitutive promoter (e.g., the SV 40 promoter) is introduced by transfection (a procedure to induce cells to take up foreign genes) into a background cell substantially devoid of endogenous IRs. This introduced gene directs the recipient cells to make the IR protein of interest. A second gene is also introduced (co-transfected) into the same cells in conjunction with the IR gene. This second gene, comprising the cDNA for a reporter protein, such as firefly luciferase (LUC), controlled by an appropriate hormone responsive promoter containing a hormone response element (HRE). This reporter plasmid functions as a reporter for the transcription-modulating activity of the target IR. Thus, the reporter acts as a surrogate for the products (mRNA then protein) normally expressed by a gene under control of the target receptor and its native hormone.
(§3) The co-transfection assay can detect small molecule agonists or antagonists of target IRs. Exposing the transfected cells to an agonist ligand compound increases reporter activity in the transfected cells. This activity can be conveniently measured, e.g., by increasing luciferase production, which reflects compound-dependent, IR-mediated increases in reporter transcription. […] To detect antagonists, the co-transfection assay is carried out in the presence of a constant concentration of an agonist to the target IR (e.g., progesterone for PR) known to induce a defined reporter signal. Increasing concentrations of a suspected antagonist will decrease the reporter signal (e.g., luciferase production). The co-transfection assay is therefore useful to detect both agonists and antagonists of specific IRs. Furthermore, it determines not only whether a compound interacts with a particular IR, but whether this interaction mimics (agonizes) or blocks (antagonizes) the effects of the native regulatory molecules on target gene expression, as well as the specificity and strength of this interaction.
(§4) CV-1 cells (African green monkey kidney fibroblasts) were cultured in the presence of Dulbecco's Modified Eagle Medium (DMEM) supplemented with 10% charcoal resin-stripped fetal bovine serum then transferred to 96-well microtiter plates one day prior to transfection.
(§5) The reporter plasmid, MTV-LUC, contains the cDNA for firefly luciferase (LUC) under control of the mouse mammary tumor virus (MTV) long terminal repeat, a conditional promoter containing an androgen response element. See e.g., Berger et al. supra. In addition, pRS-β-Gal, coding for constitutive expression of E. coli β-galactosidase (β-Gal), was included as an internal control for evaluation of transfection efficiency and compound toxicity.
(§6) Six hours after transfection, media was removed and the cells were washed with phosphate-buffered saline (PBS). […] Three to four replicates were used for each sample. Transfections and subsequent procedures were performed on a Biomek 1000 automated laboratory work station.
(§7) After 40 hours, the cells were washed with PBS, lysed with a Triton X-100-based buffer and assayed for LUC and β-Gal activities using a luminometer or spectrophotometer, respectively. For each replicate, the normalized response (NR) was calculated as: LUC response/β-Gal rate • where β-Gal rate=β-Gal·1×10^−5/β-Gal incubation time.

[3] = molecular target: T1, human AR; test: Co-transfection assay, AR antagonist activity in presence of DHT, CV-1 cells; assay type: cell-based; design: expressed in transfected cells; host or cells: CV-1 cells (African green monkey kidney fibroblasts), transient transfection with pRShAR; conditions: for AR Antagonist CV-1 Cells Efficacy (%): percent maximal inhibition, DHT at its EC50 concentration
Text: as §1, §2, §3, §4, §5, §6, §7

[4] = COS-1 cells, 1 nM 3H-DHT, Cheng-Prusoff from IC50, read-out: AR Binding Ki
[5] = agonist potency or EC50, read-out: AR Agonist CV-1 Cells Potency
[6] = CV-1 cells, antagonist potency or IC50, DHT at its EC50 concentration, read-out: AR Antagonist CV-1 Cells Potency
[7] = AR Binding Ki (nM), COS-1 cells, 1 nM 3H-DHT, Cheng-Prusoff from IC50
[8] = AR Agonist CV-1 Cells Potency (nM), agonist potency or EC50
[9] = AR Antagonist CV-1 Cells Potency (nM), CV-1 cells, antagonist potency or IC50, DHT at its EC50 concentration

| Molecule | Ki [1, 4] [nM] | EC50 [2, 5] [nM] | AR Agonist CV-1 Cells Efficacy (%) [2] | IC50 [3, 6] [nM] | AR Antagonist CV-1 Cells Efficacy (%) ([3]; CV-1 cells) | Ki [1, 7] [nM] | EC50 [2, 8] [nM] | IC50 [3, 9] [nM] | Ki ([1]; read-out: AR Binding Ki) [nM] | IC50 [3] [nM] |
| --- | --- | --- | --- | --- | --- | --- | --- | --- | --- | --- |
| 5-Isopropyl-6-methyl-4-trifluoromethyl-7H-pyrrolo[3,2-f]quinolin-2(1H)-one [Compound 113] | 529 | > 10000 | na (na = not active (i.e. efficacy of <20 and potency of >10,000)) | 316 | 65% | – | – | – | – | – |
| O=c1cc(C(F)(F)F)c2c3c(ccc2[nH]1)N(Cc1ccsc1)C1CCCC31 (racemic) [Compound 127, (±)-4c,5,6,7,7a(cis),8-Hexahydro-8-(3-thiophenemethyl)-4-trifluoromethyl-cyclopentano[g]pyrrolo[3,2-f]quinolin-2(1H)-one] | – | – | 66% | – | na (na = not active (i.e. efficacy of <20 and potency of >10,000)) | 6.3 | 25 | > 10000 | – | – |
| CCCN1c2ccc3[nH]c(=O)cc(C(F)(F)F)c3c2C2CCCC21 (racemic) [Compound 125, (±)-4c,5,6,7,7a(cis),8-Hexahydro-8-propyl-4-trifluoromethylcyclopentano-[g]pyrrolo-[3,2-f]quinolin-2(1H)-one] | – | – | 121% | – | na (na = not active (i.e. efficacy of <20 and potency of >10,000)) | 1.3 | 38 | > 10000 | – | – |
| O=c1cc(C(F)(F)F)c2c(ccc3c2c2ccccc2n3CC(F)(F)F)[nH]1 [Compound 158, 9-(2,2,2-Trifluoroethyl)-4-trifluoromethyl-9H-benzo[g]pyrrolo[3,2f]quinolin-2(1H)-one] | – | – | 59% | – | na (na = not active (i.e. efficacy of <20 and potency of >10,000)) | 7.1 | 7.9 | > 10000 | – | – |
| 5-(4-Fluorophenyl)-6-methyl-7-(2,2,2-trifluoroethyl)-4-trifluoromethyl-7H-pyrrolo[3,2-f]quinolin-2(1H)-one [Compound 161] | 30 | 238 | 27% | 10 | 66% | – | – | – | – | – |
| CCc1[nH]c2c(ccc3[nH]c(=O)cc(C(F)(F)F)c32)c1C [Compound 175, 6-Ethyl-7-methyl-4-trifluoromethyl-5H-pyrrolo[2,3-f]quinolin-2(1H)-one] | – | – | na (na = not active (i.e. efficacy of <20 and potency of >10,000)) | – | 78% | 239 | > 10000 | 11 | – | – |
| CC1C(c2ccc(N(C)C)cc2)c2c(ccc3[nH]c(=O)cc(C(F)(F)F)c23)N1CC(F)(F)F (racemic) [Compound 137, (±)-5,6-cis-Dihydro-5-(4-dimethylaminophenyl)-6-methyl-7-(2,2,2-trifluoroethyl)-4-trifluoromethyl-7H-pyrrolo[3,2-f]quinolin-2(1H)-one] | – | – | 77% | – | na (na = not active (i.e. efficacy of <20 and potency of >10,000)) | – | 145 | – | 107 | > 10000 |
| 5-Allyl-6-methyl-4-trifluoromethyl-7H-pyrrolo[3,2-f]quinolin-2(1H)-one [Compound 114] | 81 | > 10000 | na (na = not active (i.e. efficacy of <20 and potency of >10,000)) | 6.6 | 81% | – | – | – | – | – |
| CC1=CC(C)(C)Oc2cc3oc(=O)cc(C(F)(F)F)c3cc21 [Compound 223, 6,8,8-Trimethyl-4-trifluoromethyl-8H-pyrano[3,2-g]coumarin] | – | – | na (na = not active (i.e. efficacy of <20 and potency of >10,000)) | – | 66% | 37 | > 10000 | 41 | – | – |
| O=c1cc(C(F)(F)F)c2c3c(ccc2[nH]1)N(CC(F)(F)Cl)C1CCCC31 (racemic) [Compound 129, (±)-4c,5,6,7,7a(cis),8-Hexahydro-8-(2,2,2-chlorodifluoroethyl)-4-trifluoromethylcyclopentano[g]pyrrolo[3,2-f]quinolin-2(1H)-one] | – | – | 79% | – | na (na = not active (i.e. efficacy of <20 and potency of >10,000)) | 3.2 | 1.6 | > 10000 | – | – |
| CC1(C)CCc2c(ccc3[nH]c(=O)cc(C(F)(F)F)c23)N1CC(F)(F)F [Compound 110, 8-(2,2,2-Trifluoroethyl)-5,6,7,8-tetrahydro-7,7-dimethyl-4-trifluoromethyl-pyridino[3,2-f]quinolin-2(1H)-one] | – | – | 106% | – | na (na = not active (i.e. efficacy of <20 and potency of >10,000)) | 21 | 21 | > 10000 | – | – |
